Test results reported in patent publication US20230000813A1, “COMPOUND FOR THE TREATMENT OF BOVINE OR SWINE RESPIRATORY DISEASE” (Intervet Inc., priority 2016, published 2023).
≈ marks a conversion by molar mass, not a printed value. Where two headings read alike, the source gives them in different places.

What was measured:
Experiment in all cases: MIC, broth-microdilution (CLSI VET01-A4)
Format in all cases: cell-based
[1] = tested on: Pasteurella multocida PM 10775 (080130003051, BRD field isolate); details: Pasteurella multocida PM 10775; for MIC: read-out: MIC PM 10775
Method in brief: (§1)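 Test compound is serially diluted twofold across microdilution trays, bacteria are grown, and wells are inspected by eye. The lowest concentration showing no growth is recorded as the MIC.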

[2] = tested on: Mannheimia haemolytica MH 12587 (1071, BRD field isolate, macrolide-resistance: erm+, E+); details: for MIC MH 12587: Mannheimia haemolytica MH 12587, macrolide-resistant
Method in brief: as §1

[3] = tested on: Pasteurella multocida PM 6391 (ATCC 43137, reference strain); details: Pasteurella multocida PM 6391; for MIC: read-out: MIC PM 6391
Method in brief: as §1

[4] = tested on: Pasteurella multocida PM 12080 (IV102277-0093, BRD field isolate); details: Pasteurella multocida PM 12080; for MIC: read-out: MIC PM 12080
Method in brief: as §1

[5] = tested on: Mannheimia haemolytica MH 6357 (M7/2, reference strain, cattle infection strain); details: Mannheimia haemolytica MH 6357; read-out: MIC MH 6357
Method in brief: as §1

[6] = tested on: Mannheimia haemolytica MH 6374 (ATCC 33396, reference strain); details: Mannheimia haemolytica MH 6374, read-out: MIC MH 6374
Method in brief: as §1

[7] = tested on: Mannheimia haemolytica MH 10720 (154, BRD field isolate); details: Mannheimia haemolytica MH 10720; for MIC: read-out: MIC MH 10720
Method in brief: as §1

[8] = tested on: Pasteurella multocida PM 6267 (P 2225 (L386), reference strain, mouse infection strain); details: Pasteurella multocida PM 6267; for MIC: read-out: MIC PM 6267
Method in brief: as §1

[9] = tested on: Mannheimia haemolytica MH 13065 (XB0446-6003.9, BRD field isolate)
Method in brief: (§2)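 MIC read by eye as lowest compound concentration without visible growth (no turbidity), interpreted per CLSI VET01-S3. Doubling-dilution broth-microdilution trays, run according to CLSI VET01-A4.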

[10] = tested on: Mannheimia haemolytica MH 13093 (XB0472-6014.1, BRD field isolate)
Method in brief: as §2

Compound	MIC PM 10775 [1]	MIC MH 12587 [2]	MIC PM 6391 [3]	MIC PM 12080 [4]	MIC [5]	MIC [6]	MIC MH 10720 [7]	MIC PM 6267 [8]	MIC [9]	MIC [10]	MIC [3]	MIC [4]	MIC [7]	MIC [1]	MIC ([2]; Mannheimia haemolytica, read-out: MIC MH 12587)	MIC ([3]; ATCC43137)	MIC ([6]; ATCC33396)	MIC [8]
CC(C)(O)C(NC(=O)c1ccc(C#Cc2ccc(CNC3CC3)cc2)cc1)C(=O)NO (centres unmarked) [Compound 565]	<=0.1 μM	1.6 µM (≈ 0.674 µg/mL)	<=0.1 μM	<=0.1 μM	1.6 µM (≈ 0.674 µg/mL)	0.4 µM (≈ 0.169 µg/mL)	<=0.1 μM	<=0.1 μM	0.4 µM (≈ 0.169 µg/mL)	0.8 µM (≈ 0.337 µg/mL)	–	–	–	–	–	–	–	–
CC(C)C(NC(=O)c1ccc(C#Cc2ccc(CNCc3ccccn3)cc2)cc1)C(=O)NO (centres unmarked) [Compound 289]	<=0.1 μM	1.6 µM (≈ 0.73 µg/mL)	–	–	0.4 µM (≈ 0.183 µg/mL)	0.8 µM (≈ 0.365 µg/mL)	–	<=0.1 μM	0.8 µM (≈ 0.365 µg/mL)	0.8 µM (≈ 0.365 µg/mL)	0.4 µM (≈ 0.183 µg/mL)	0.4 µM (≈ 0.183 µg/mL)	0.2 µM (≈ 0.0913 µg/mL)	–	–	–	–	–
C[C@@H](O)[C@H](NC(=O)c1ccc(C#Cc2ccc(CN3CCc4ccccc4C3)o2)cc1)C(=O)NO [Compound 203]	<=0.1 μM	1.6 µM (≈ 0.758 µg/mL)	–	–	0.8 µM (≈ 0.379 µg/mL)	0.8 µM (≈ 0.379 µg/mL)	<=0.1 μM	<=0.1 μM	0.8 µM (≈ 0.379 µg/mL)	0.8 µM (≈ 0.379 µg/mL)	0.4 µM (≈ 0.189 µg/mL)	0.2 µM (≈ 0.0947 µg/mL)	–	–	–	–	–	–
CC(C)(C(NC(=O)c1ccc(C#Cc2ccc(CNCc3ccncc3)cc2)cc1)C(=O)NO)[N+](=O)[O-] (racemic) [Compound 654]	<=0.1 μM	0.8 µM (≈ 0.401 µg/mL)	<=0.1 μM	<=0.1 μM	0.4 µM (≈ 0.201 µg/mL)	0.4 µM (≈ 0.201 µg/mL)	<=0.1 μM	<=0.1 μM	0.4 µM (≈ 0.201 µg/mL)	0.4 µM (≈ 0.201 µg/mL)	–	–	–	–	–	–	–	–
C#CCNCc1ccc(C#Cc2ccc(C(=O)NC(C(=O)NO)C(C)(C)N)cc2)s1 (racemic) [Compound 633]	<=0.1 μM	0.8 µM (≈ 0.34 µg/mL)	–	–	0.8 µM (≈ 0.34 µg/mL)	0.4 µM (≈ 0.17 µg/mL)	<=0.1 μM	<=0.1 μM	0.8 µM (≈ 0.34 µg/mL)	0.8 µM (≈ 0.34 µg/mL)	0.2 µM (≈ 0.0849 µg/mL)	0.2 µM (≈ 0.0849 µg/mL)	–	–	–	–	–	–
C[C@@H](O)[C@H](NC(=O)c1ccc(C#Cc2ccc([N+](=O)[O-])cc2)cc1)C(=O)NO [Compound 243, N-[(1S,2R)-2-hydroxy-1-(hydroxycarbamoyl)propyI]-4-[2-(4-nitrophenyl)ethynyl]benzamide]	–	–	–	–	0.2 µM (≈ 0.0767 µg/mL)	–	–	–	0.4 µM (≈ 0.153 µg/mL)	1.6 µM (≈ 0.613 µg/mL)	–	0.2 µM (≈ 0.0767 µg/mL)	≤ 0.1 µM	≤ 0.1 µM	0.8 µM (≈ 0.307 µg/mL)	0.2 µM (≈ 0.0767 µg/mL)	0.4 µM (≈ 0.153 µg/mL)	≤ 0.1 µM
Cc1ccc(CNCc2ccc(C#Cc3ccc(C(=O)NC(C(=O)NO)C(C)C)cc3)cc2)cc1 (centres unmarked) [Compound 292]	<=0.1 μM	1.6 µM (≈ 0.751 µg/mL)	–	–	0.4 µM (≈ 0.188 µg/mL)	0.8 µM (≈ 0.376 µg/mL)	–	–	0.8 µM (≈ 0.376 µg/mL)	0.8 µM (≈ 0.376 µg/mL)	0.4 µM (≈ 0.188 µg/mL)	0.4 µM (≈ 0.188 µg/mL)	0.4 µM (≈ 0.188 µg/mL)	–	–	–	–	0.2 µM (≈ 0.0939 µg/mL)
C[C@@H](O)[C@H](NC(=O)c1ccc(C#Cc2ccc(CNCc3ccccn3)cc2)cc1)C(=O)NO [C. 258]	<=0.1 μM	1.6 µM (≈ 0.734 µg/mL)	–	<=0.1 μM	0.4 µM (≈ 0.183 µg/mL)	0.8 µM (≈ 0.367 µg/mL)	–	<=0.1 μM	0.8 µM (≈ 0.367 µg/mL)	0.8 µM (≈ 0.367 µg/mL)	0.2 µM (≈ 0.0917 µg/mL)	–	0.2 µM (≈ 0.0917 µg/mL)	–	–	–	–	–
CSCCNCc1ccc(C#Cc2ccc(C(=O)NC(C(=O)NO)C(C)(C)N)cc2)s1 (racemic) [Compound 635]	<=0.1 μM	1.6 µM (≈ 0.737 µg/mL)	–	<=0.1 μM	1.6 µM (≈ 0.737 µg/mL)	0.4 µM (≈ 0.184 µg/mL)	<=0.1 μM	<=0.1 μM	0.8 µM (≈ 0.369 µg/mL)	0.8 µM (≈ 0.369 µg/mL)	0.4 µM (≈ 0.184 µg/mL)	–	–	–	–	–	–	–
Cc1cnc(CNCc2ccc(C#Cc3ccc(C(=O)NC(C(=O)NO)C(C)(C)N)cc3)s2)o1 (racemic) [Compound 636]	<=0.1 μM	1.6 µM (≈ 0.771 µg/mL)	–	–	0.8 µM (≈ 0.385 µg/mL)	0.4 µM (≈ 0.193 µg/mL)	<=0.1 μM	<=0.1 μM	1.6 µM (≈ 0.771 µg/mL)	0.8 µM (≈ 0.385 µg/mL)	0.4 µM (≈ 0.193 µg/mL)	0.4 µM (≈ 0.193 µg/mL)	–	–	–	–	–	–
CC(C)(O)C(NC(=O)c1ccc(C#Cc2ccc(CNCc3ccco3)cc2)cc1)C(=O)NO (centres unmarked) [Compound 577]	<=0.1 μM	0.8 µM (≈ 0.369 µg/mL)	<=0.1 μM	<=0.1 μM	0.4 µM (≈ 0.185 µg/mL)	0.2 µM (≈ 0.0923 µg/mL)	<=0.1 μM	<=0.1 μM	0.2 µM (≈ 0.0923 µg/mL)	0.4 µM (≈ 0.185 µg/mL)	–	–	–	–	–	–	–	–
COc1ccc(CNCc2ccc(C#Cc3ccc(C(=O)NC(C(=O)NO)C(C)(C)SC)cc3)cc2)cc1 (centres unmarked) [Compound 586]	–	1.6 µM (≈ 0.851 µg/mL)	–	–	1.6 µM (≈ 0.851 µg/mL)	1.6 µM (≈ 0.851 µg/mL)	–	–	1.6 µM (≈ 0.851 µg/mL)	1.6 µM (≈ 0.851 µg/mL)	0.8 µM (≈ 0.425 µg/mL)	0.4 µM (≈ 0.213 µg/mL)	0.4 µM (≈ 0.213 µg/mL)	0.2 µM (≈ 0.106 µg/mL)	–	–	–	0.2 µM (≈ 0.106 µg/mL)
CC(C)(N)C(NC(=O)c1ccc(C#Cc2ccc(CNCc3nccs3)s2)cc1)C(=O)NO (centres unmarked) [Compound 564]	<=0.1 μM	0.8 µM (≈ 0.387 µg/mL)	<=0.1 μM	<=0.1 μM	0.8 µM (≈ 0.387 µg/mL)	0.4 µM (≈ 0.193 µg/mL)	<=0.1 μM	<=0.1 μM	0.8 µM (≈ 0.387 µg/mL)	0.8 µM (≈ 0.387 µg/mL)	–	–	–	–	–	–	–	–
COc1ccc(CNCc2ccc(C#Cc3ccc(C(=O)NC(C(=O)NO)C(C)(C)O)cc3)cc2)cc1 (centres unmarked) [Compound 570]	<=0.1 μM	1.6 µM (≈ 0.803 µg/mL)	–	<=0.1 μM	0.8 µM (≈ 0.401 µg/mL)	0.8 µM (≈ 0.401 µg/mL)	<=0.1 μM	<=0.1 μM	0.8 µM (≈ 0.401 µg/mL)	0.8 µM (≈ 0.401 µg/mL)	0.4 µM (≈ 0.201 µg/mL)	–	–	–	–	–	–	–
CC(C)C(NC(=O)c1ccc(C#Cc2ccc(CNCc3nccs3)cc2)cc1)C(=O)NO (centres unmarked) [Compound 341]	<=0.1 μM	0.4 µM (≈ 0.185 µg/mL)	<=0.1 μM	<=0.1 μM	0.2 µM (≈ 0.0925 µg/mL)	0.4 µM (≈ 0.185 µg/mL)	<=0.1 μM	<=0.1 μM	0.2 µM (≈ 0.0925 µg/mL)	0.4 µM (≈ 0.185 µg/mL)	–	–	–	–	–	–	–	–
C[C@@H](O)[C@H](NC(=O)c1ccc(C#Cc2ccc(CNCc3ccccc3)s2)cc1)C(=O)NO [Compound 195]	<=0.1 μM	0.8 µM (≈ 0.371 µg/mL)	<=0.1 μM	<=0.1 μM	0.2 µM (≈ 0.0927 µg/mL)	0.2 µM (≈ 0.0927 µg/mL)	<=0.1 μM	<=0.1 μM	0.4 µM (≈ 0.185 µg/mL)	0.4 µM (≈ 0.185 µg/mL)	–	–	–	–	–	–	–	–
CC(C)(C(NC(=O)c1ccc(C#Cc2ccc(CNCc3ccccc3)cc2)cc1)C(=O)NO)[N+](=O)[O-] (racemic) [Compound 652]	<=0.1 μM	0.8 µM (≈ 0.4 µg/mL)	–	<=0.1 μM	0.8 µM (≈ 0.4 µg/mL)	0.8 µM (≈ 0.4 µg/mL)	<=0.1 μM	<=0.1 μM	0.4 µM (≈ 0.2 µg/mL)	0.8 µM (≈ 0.4 µg/mL)	0.4 µM (≈ 0.2 µg/mL)	–	–	–	–	–	–	–
